Results on 13 compounds are retold here after patent US20220389061A1, “IMMUNOMODULATORS” (priority 2019, published 2022).

Starred links: 1 amine or outer side, 2 acyl side, 3 side chain; linkers in the order of their positions; H or OH if unused. Positions of bridges follow the written chain, without caps; N, C: chain ends. Non-standard residues stand in square brackets, D forms with d. Residues, ends and D or L forms follow the SMILES beside them. Groups on a side chain read outwards from the residue. *: point of attachment. Trp(1-CH2CO2Me) = COC(=O)Cn1cc(C[C@H](N)C(=O)O)c2ccccc21; Trp(1-CH2COOH) = N[C@@H](Cc1cn(CC(=O)O)c2ccccc12)C(=O)O; Benzoyl(2-(4-MeOPh)) = COc1ccc(-c2ccccc2C(=O)*)cc1; X23 = COc1cc(NC(=S)*)ccc1-n1cnc(Cl)c1; X24 = COc1cc(NC(=S)*)ccc1-n1cnc(C)n1; Hyp = O=C(O)[C@@H]1C[C@@H](O)CN1; X10 = S=C(Nc1ccc(N2CCOCC2)cc1)*; X80 = S=C(Nc1ccc(-n2cccn2)cc1)*; X94 = S=C(Nc1ccc(N2CCOCC2)nc1)*; NMeNle = CCCC[C@H](NC)C(=O)O; X2 = c1ccc(-c2ccccc2N*)cc1; NMeA = CN[C@@H](C)C(=O)O; X58 = COc1cc(N*)cc(OC)c1; Dab = NCC[C@H](N)C(=O)O; Dap = NC[C@H](N)C(=O)O; CO = O=C([*:1])[*:2]; NHPh = c1ccc(N*)cc1

For one assay, the target named is T1, PD-1/PD-L1 (Homo sapiens, UniProt Q9NZQ7).
T1 construct: TVMV protease site linker (C); made in house; host or cells: HEK293T cells
T1 sequence (Q9NZQ7 18-239): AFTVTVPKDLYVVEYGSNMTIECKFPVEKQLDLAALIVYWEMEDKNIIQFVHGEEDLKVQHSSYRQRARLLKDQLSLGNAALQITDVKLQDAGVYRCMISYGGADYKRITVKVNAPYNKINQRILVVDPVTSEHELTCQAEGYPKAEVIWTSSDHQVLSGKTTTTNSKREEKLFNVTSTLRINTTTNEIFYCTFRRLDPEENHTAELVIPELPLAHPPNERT
Nature of the assay: PD-1/PD-L1 Homogenous Time-Resolved Fluorescence (HTRF) binding assay.
Details: not given
An outline of the steps:
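Compounds preincubated 15 min with PD-L1-His (10 nM final), then PD-1-Ig (20 nM final) added for 15 min in dPBS with 0.1% BSA, 0.05% Tween-20. Detection by Eu-cryptate anti-Ig (1 nM) and APC anti-His (20 nM) HTRF.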
Take `CCCC[C@H]1C(=O)N(C)[C@@H](CCCC)C(=O)N[C@@H](CC(C)C)C(=O)N[C@H](C(=O)NCC(N)=O)CSCC(=O)N[C@@H](Cc2ccc(O)cc2)C(=O)N(C)[C@@H](C)C(=O)N[C@@H](CC(N)=O)C(=O)N2CCC[C@H]2C(=O)N[C@@H](CNC(=O)Nc2ccccc2-c2ccccc2)C(=O)N[C@@H](CC(C)C)C(=O)N2C[C@H](O)C[C@H]2C(=O)N[C@@H](Cc2c[nH]c3ccccc23)C(=O)N[C@@H](CCN)C(=O)N[C@@H](Cc2cn(CC(=O)O)c3ccccc23)C(=O)N1C` [Example 1062] ({CH2CO}-Y[NMeA]NP[Dap]([CO-X2])L[Hyp]W[Dab][Trp(1-CH2COOH)][NMeNle][NMeNle]LCG-NH2; thioether N-14): the IC50 amounted to 3.4 nM.

Staying with this assay, now noted: PD-L1-His 10 nM pre-incubated with inhibitor, PD-1-Ig 20 nM; read-out: HTRF IC50.
For the compound `CCCC[C@H]1C(=O)N(C)[C@@H](CCCC)C(=O)N[C@@H](CC(C)C)C(=O)N[C@H](C(=O)NCC(N)=O)CSCC(=O)N[C@@H](Cc2ccc(O)cc2)C(=O)N(C)[C@@H](C)C(=O)N[C@@H](CC(N)=O)C(=O)N2CCC[C@H]2C(=O)N[C@@H](CNC(=O)c2ccccc2-c2ccc(OC)cc2)C(=O)N[C@@H](CC(C)C)C(=O)N2C[C@H](O)C[C@H]2C(=O)N[C@@H](Cc2c[nH]c3ccccc23)C(=O)N[C@@H](CCNC(=O)c2ccccc2-c2ccc(OC)cc2)C(=O)N[C@@H](Cc2cn(CC(=O)OC)c3ccccc23)C(=O)N1C` [Example 1050] ({CH2CO}-Y[NMeA]NP[Dap](Benzoyl(2-(4-MeOPh)))L[Hyp]W[Dab](Benzoyl(2-(4-MeOPh)))[Trp(1-CH2CO2Me)][NMeNle][NMeNle]LCG-NH2; thioether N-14), the IC50 is 39 nM.
On the same count and under the same terms, in the case of `CCCC[C@H]1C(=O)N(C)[C@@H](CCCC)C(=O)N[C@@H](CC(C)C)C(=O)N[C@H](C(=O)NCC(N)=O)CSCC(=O)N[C@@H](Cc2ccc(O)cc2)C(=O)N(C)[C@@H](C)C(=O)N[C@@H](CC(N)=O)C(=O)N2CCC[C@H]2C(=O)N[C@@H](CNC(=S)Nc2ccc(N3CCOCC3)cc2)C(=O)N[C@@H](CC(C)C)C(=O)N2C[C@H](O)C[C@H]2C(=O)N[C@@H](Cc2c[nH]c3ccccc23)C(=O)N[C@@H](CCN)C(=O)N[C@@H](Cc2cn(CC(=O)OC)c3ccccc23)C(=O)N1C` [Example 1053] ({CH2CO}-Y[NMeA]NP[Dap](X10)L[Hyp]W[Dab][Trp(1-CH2CO2Me)][NMeNle][NMeNle]LCG-NH2; thioether N-14) it was 3.2 nM; in that of `CCCC[C@H]1C(=O)N(C)[C@@H](CCCC)C(=O)N[C@@H](CC(C)C)C(=O)N[C@H](C(=O)NCC(N)=O)CSCC(=O)N[C@@H](Cc2ccc(O)cc2)C(=O)N(C)[C@@H](C)C(=O)N[C@@H](CC(N)=O)C(=O)N2CCC[C@H]2C(=O)N[C@@H](CNC(=S)Nc2ccc(-n3cnc(C)n3)c(OC)c2)C(=O)N[C@@H](CC(C)C)C(=O)N2C[C@H](O)C[C@H]2C(=O)N[C@@H](Cc2c[nH]c3ccccc23)C(=O)N[C@@H](CCN)C(=O)N[C@@H](Cc2cn(CC(=O)O)c3ccccc23)C(=O)N1C` [Example 1054] ({CH2CO}-Y[NMeA]NP[Dap](X24)L[Hyp]W[Dab][Trp(1-CH2COOH)][NMeNle][NMeNle]LCG-NH2; thioether N-14), 3.5 nM; in that of `CCCC[C@H]1C(=O)N(C)[C@@H](CCCC)C(=O)N[C@@H](CC(C)C)C(=O)N[C@H](C(=O)NCC(N)=O)CSCC(=O)N[C@@H](Cc2ccc(O)cc2)C(=O)N(C)[C@@H](C)C(=O)N[C@@H](CC(N)=O)C(=O)N2CCC[C@H]2C(=O)N[C@@H](CNC(=S)Nc2ccc(N3CCOCC3)cc2)C(=O)N[C@@H](CC(C)C)C(=O)N2C[C@H](O)C[C@H]2C(=O)N[C@@H](Cc2c[nH]c3ccccc23)C(=O)N[C@@H](CCN)C(=O)N[C@@H](Cc2cn(CC(=O)O)c3ccccc23)C(=O)N1C` [Example 1055] ({CH2CO}-Y[NMeA]NP[Dap](X10)L[Hyp]W[Dab][Trp(1-CH2COOH)][NMeNle][NMeNle]LCG-NH2; thioether N-14), 0.9 nM.
On the same count and under the same terms, in the case of `CCCC[C@H]1C(=O)N(C)[C@@H](CCCC)C(=O)N[C@@H](CC(C)C)C(=O)N[C@H](C(=O)NCC(N)=O)CSCC(=O)N[C@@H](Cc2ccc(O)cc2)C(=O)N(C)[C@@H](C)C(=O)N[C@@H](CC(N)=O)C(=O)N2CCC[C@H]2C(=O)N[C@@H](CNC(=O)Nc2ccccc2)C(=O)N[C@@H](CC(C)C)C(=O)N2C[C@H](O)C[C@H]2C(=O)N[C@@H](Cc2c[nH]c3ccccc23)C(=O)N[C@@H](CCN)C(=O)N[C@@H](Cc2cn(CC(=O)O)c3ccccc23)C(=O)N1C` [Example 1056] ({CH2CO}-Y[NMeA]NP[Dap]([CO-NHPh])L[Hyp]W[Dab][Trp(1-CH2COOH)][NMeNle][NMeNle]LCG-NH2; thioether N-14) it was 3.1 nM; in that of `CCCC[C@H]1C(=O)N(C)[C@@H](CCCC)C(=O)N[C@@H](CC(C)C)C(=O)N[C@H](C(=O)NCC(N)=O)CSCC(=O)N[C@@H](Cc2ccc(O)cc2)C(=O)N(C)[C@@H](C)C(=O)N[C@@H](CC(N)=O)C(=O)N2CCC[C@H]2C(=O)N[C@@H](CNC(=O)c2ccccc2-c2ccc(OC)cc2)C(=O)N[C@@H](CC(C)C)C(=O)N2C[C@H](O)C[C@H]2C(=O)N[C@@H](Cc2c[nH]c3ccccc23)C(=O)N[C@@H](CCN)C(=O)N[C@@H](Cc2cn(CC(=O)OC)c3ccccc23)C(=O)N1C` [Example 1057] ({CH2CO}-Y[NMeA]NP[Dap](Benzoyl(2-(4-MeOPh)))L[Hyp]W[Dab][Trp(1-CH2CO2Me)][NMeNle][NMeNle]LCG-NH2; thioether N-14), 3.2 nM; in that of `CCCC[C@H]1C(=O)N(C)[C@@H](CCCC)C(=O)N[C@@H](CC(C)C)C(=O)N[C@H](C(=O)NCC(N)=O)CSCC(=O)N[C@@H](Cc2ccc(O)cc2)C(=O)N(C)[C@@H](C)C(=O)N[C@@H](CC(N)=O)C(=O)N2CCC[C@H]2C(=O)N[C@@H](CNC(=S)Nc2ccc(N3CCOCC3)nc2)C(=O)N[C@@H](CC(C)C)C(=O)N2C[C@H](O)C[C@H]2C(=O)N[C@@H](Cc2c[nH]c3ccccc23)C(=O)N[C@@H](CCN)C(=O)N[C@@H](Cc2cn(CC(=O)O)c3ccccc23)C(=O)N1C` [Example 1058] ({CH2CO}-Y[NMeA]NP[Dap](X94)L[Hyp]W[Dab][Trp(1-CH2COOH)][NMeNle][NMeNle]LCG-NH2; thioether N-14), 4 nM.
On to `CCCC[C@H]1C(=O)N(C)[C@@H](CCCC)C(=O)N[C@@H](CC(C)C)C(=O)N[C@H](C(=O)NCC(N)=O)CSCC(=O)N[C@@H](Cc2ccc(O)cc2)C(=O)N(C)[C@@H](C)C(=O)N[C@@H](CC(N)=O)C(=O)N2CCC[C@H]2C(=O)N[C@@H](CNC(=S)Nc2ccc(-n3cnc(Cl)c3)c(OC)c2)C(=O)N[C@@H](CC(C)C)C(=O)N2C[C@H](O)C[C@H]2C(=O)N[C@@H](Cc2c[nH]c3ccccc23)C(=O)N[C@@H](CCN)C(=O)N[C@@H](Cc2cn(CC(=O)O)c3ccccc23)C(=O)N1C` [Example 1059] ({CH2CO}-Y[NMeA]NP[Dap](X23)L[Hyp]W[Dab][Trp(1-CH2COOH)][NMeNle][NMeNle]LCG-NH2; thioether N-14), for which the half-maximal inhibitory concentration (IC50) was found to be 3.5 nM.
As to `CCCC[C@H]1C(=O)N(C)[C@@H](CCCC)C(=O)N[C@@H](CC(C)C)C(=O)N[C@H](C(=O)NCC(N)=O)CSCC(=O)N[C@@H](Cc2ccc(O)cc2)C(=O)N(C)[C@@H](C)C(=O)N[C@@H](CC(N)=O)C(=O)N2CCC[C@H]2C(=O)N[C@@H](CNC(=S)Nc2ccc(-n3cccn3)cc2)C(=O)N[C@@H](CC(C)C)C(=O)N2C[C@H](O)C[C@H]2C(=O)N[C@@H](Cc2c[nH]c3ccccc23)C(=O)N[C@@H](CCN)C(=O)N[C@@H](Cc2cn(CC(=O)O)c3ccccc23)C(=O)N1C` [Example 1060] ({CH2CO}-Y[NMeA]NP[Dap](X80)L[Hyp]W[Dab][Trp(1-CH2COOH)][NMeNle][NMeNle]LCG-NH2; thioether N-14), the IC50 is 1.1 nM.
Still for that read-out and setting: in the case of `CCCC[C@H]1C(=O)N(C)[C@@H](CCCC)C(=O)N[C@@H](CC(C)C)C(=O)N[C@H](C(=O)NCC(N)=O)CSCC(=O)N[C@@H](Cc2ccc(O)cc2)C(=O)N(C)[C@@H](C)C(=O)N[C@@H](CC(N)=O)C(=O)N2CCC[C@H]2C(=O)N[C@@H](CNC(=O)c2ccccc2-c2ccc(OC)cc2)C(=O)N[C@@H](CC(C)C)C(=O)N2C[C@H](O)C[C@H]2C(=O)N[C@@H](Cc2c[nH]c3ccccc23)C(=O)N[C@@H](CCN)C(=O)N[C@@H](Cc2cn(CC(=O)O)c3ccccc23)C(=O)N1C` [Example 1061] ({CH2CO}-Y[NMeA]NP[Dap](Benzoyl(2-(4-MeOPh)))L[Hyp]W[Dab][Trp(1-CH2COOH)][NMeNle][NMeNle]LCG-NH2; thioether N-14) it was 4 nM.
Still for that read-out and setting: in the case of `CCCC[C@H]1C(=O)N(C)[C@@H](CCCC)C(=O)N[C@@H](CC(C)C)C(=O)N[C@H](C(=O)NCC(N)=O)CSCC(=O)N[C@@H](Cc2ccc(O)cc2)C(=O)N(C)[C@@H](C)C(=O)N[C@@H](CC(N)=O)C(=O)N2CCC[C@H]2C(=O)N[C@@H](CNC(=O)c2ccccc2-c2ccc(OC)cc2)C(=O)N[C@@H](CC(C)C)C(=O)N2C[C@H](O)C[C@H]2C(=O)N[C@@H](Cc2c[nH]c3ccccc23)C(=O)N[C@@H](CCN)C(=O)N[C@@H](Cc2cn(CC(=O)O)c3ccccc23)C(=O)N1C` [Example 1063] ({CH2CO}-Y[NMeA]NP[Dap](Benzoyl(2-(4-MeOPh)))L[Hyp]W[Dab][Trp(1-CH2COOH)][NMeNle][NMeNle]LCG-NH2; thioether N-14) it was 3.7 nM; in that of `CCCC[C@H]1C(=O)N(C)[C@@H](CCCC)C(=O)N[C@@H](CC(C)C)C(=O)N[C@H](C(=O)NCC(N)=O)CSCC(=O)N[C@@H](Cc2ccc(O)cc2)C(=O)N(C)[C@@H](C)C(=O)N[C@@H](CC(N)=O)C(=O)N2CCC[C@H]2C(=O)N[C@@H](CNC(=O)Nc2cc(OC)cc(OC)c2)C(=O)N[C@@H](CC(C)C)C(=O)N2C[C@H](O)C[C@H]2C(=O)N[C@@H](Cc2c[nH]c3ccccc23)C(=O)N[C@@H](CCN)C(=O)N[C@@H](Cc2cn(CC(=O)O)c3ccccc23)C(=O)N1C` [Example 1064] ({CH2CO}-Y[NMeA]NP[Dap]([CO-X58])L[Hyp]W[Dab][Trp(1-CH2COOH)][NMeNle][NMeNle]LCG-NH2; thioether N-14), 3 nM.

By IC50 is commonly meant the point on the concentration scale where inhibition reaches its midpoint.
